{"source": "patent US11470844B2", "about": "“Vespidae wasp repellent” (KINP CO., LTD, priority 2015, dated 2022)", "key": {"Vespa mandarinia worker": {"test_system": "Vespa mandarinia worker", "test": "Spray on Vespa mandarinia worker collecting sawthorn oak sap", "type": "in vivo, Vespa mandarinia japonica Radoszkowski", "details": "10 workers; for behavior of workers after spraying: immediately started flapping, same time or a few seconds later; for Number of worker Effective / Number of worker No response: sprayed one time, observed up to 1 minute", "protocol": "The experiment was conducted on a Vespa mandarinia japonica Radoszkowski worker which flew to a sawthorn oak tree bleeding sap and which collected the sap in Kagawa Prefecture Kinbuchi Forest Park in Takamatsu City Kagawa Prefecture from June to October, 2014 and from June to July, 2015.\nSpecifically, 100 mL of distilled water was enclosed in a plastic sprayer having a volume of 200 mL to be used as a control sprayer, and 100 mL of benzyl alcohol was enclosed in the same material and the same volume sprayer to be used as a test liquid sprayer. First, distilled water was sprayed one time to one Vespa mandarinia worker which was collecting sap at a sap bleeding part of a trunk of a sawthorn oak tree by using a control sprayer. […] Then, benzyl alcohol was sprayed one time by using a test liquid sprayer. Next, the workers were observed up to 1 minute. With respect to 2-phenylethanol, 3-phenylpropanol, 1-phenyl-2-prpanol and benzyl acetate, the spray test to a Vespa mandarinia worker collecting a sawthorn oak sap was conducted in the same condition."}, "Apis mellifera worker": {"test_system": "Apis mellifera worker", "details": "in vivo", "protocol": "The experiment involving a Apis mellifera worker which was sucking nectar from a flower of Abelia planted at a bank of Noda pond located at Fuseishi-cho, Takamatsu City, Kagawa Prefecture was conducted on Jul. 22 to 24, 2015.\nWith respect to the experimental condition, first, distilled water was sprayed once on the worker which was sucking nectar or moving from a flower to a flower by using a sprayer, and then the inventors observed the behavior for 30 seconds. Next, benzyl alcohol, 2-phenylethanol or benzyl acetate was sprayed once on the same worker by using the sprayer having the same mass and the same volume, and then the inventors observed the behavior up to 30 seconds. The test liquid was judged to be “effective” in the case where the Apis mellifera worker on which the test liquid was sprayed did different action than normal activity to visit a flower during the observation time."}}, "data": [{"smiles": "CC(O)Cc1ccccc1", "note": "(centres unmarked) [1-Phenyl-2-propanol, 1-phenyl-2-propanol]", "values": [{"measurement": "behavior of workers after spraying", "setting": "Vespa mandarinia worker", "value": "flew away from the sap bleeding part"}, {"measurement": "Number of worker Effective", "setting": "Vespa mandarinia worker", "value": "10/10"}, {"measurement": "Number of worker No response", "setting": "Vespa mandarinia worker", "value": "0/10"}]}, {"smiles": "OCCCc1ccccc1", "note": "[3-Phenylpropanol, 3-phenylpropanol]", "values": [{"measurement": "behavior of workers after spraying", "setting": "Vespa mandarinia worker", "value": "flew away from the sap bleeding part"}, {"measurement": "Number of worker Effective", "setting": "Vespa mandarinia worker", "value": "10/10"}, {"measurement": "Number of worker No response", "setting": "Vespa mandarinia worker", "value": "0/10"}]}, {"smiles": "CC(=O)OCc1ccccc1", "note": "[Benzyl acetate, benzyl acetate]", "values": [{"measurement": "behavior of workers after spraying", "setting": "Vespa mandarinia worker", "value": "flew away from the sap bleeding part"}, {"measurement": "Number of worker Effective", "setting": "Vespa mandarinia worker", "value": "10/10"}, {"measurement": "Number of worker No response", "setting": "Vespa mandarinia worker", "value": "0/10"}, {"measurement": "Number of worker Effective", "setting": "Apis mellifera worker", "value": "0/10"}, {"measurement": "Number of worker No response", "setting": "Apis mellifera worker", "value": "10/10"}]}]}
